According to patent US12281122B1, “PI3K inhibitors” (Cogent Biosciences, Inc., priority 2023, dated 2025):

What was measured:
[1] = system: SKBR3 (PI3Kα-Wild Type) cell line; assay: HTRF phospho-AKT(S473) cell assay in SKBR3 cells; type: cell-based, human; conditions: Homo sapiens, SK-BR-3, 2 hours compound incubation, PDGF-BB stimulated
Protocol: (§1) Compounds in the present disclosure were tested in a cell based HTRF phospho-AKT(S473) (CisBio/Revvity) assay in human breast cancer cell lines as a measurement of PIK3CA activity through measuring AKT, a downstream effector. The activity of mutant PI3Kα-H1047R and PI3Kα-Wild Type was measured in the T47D (PI3Kα-H1047R) and SKBR3 (PI3Kα-Wild Type) cell lines, respectively. T47D cells were plated at 20,000 cells per well in 50 μL in RPMI medium supplemented with 10% FBS and 0.2 units/mL insulin, in 384 well plates. SKBR3 cells were plated at 25,000 cells per well in 50 μL in McCoy's 5A medium supplemented with 10% FBS, in 384 well plates. Cells were plated using a Combi Multidrop reagent dispenser (ThermoFisher), and placed in 5% CO2, 37° C. incubator overnight to adhere.
(§2) The next day, cells were treated with either compounds or vehicle (DMSO) in a 12-fold dose response curve of 1:3 dilutions, with 5 μM and 10 μM as the top concentrations for the T47D and SKBR3 cell lines, respectively. Compound treatment was facilitated via the D300e digital dispenser (Tecan), with a maximum DMSO concentration of 0.5%. Following compound addition, cell plates were incubated for 2 hours in 5% CO2, 37° C. incubator. The SKBR3 cells were stimulated and treated with 70 ng/ml PDGF-BB ligand (ThermoFisher) for the remaining 15 minutes of the incubation. Following compound incubation, compound and media was aspirated from the cells and 25 μL of supplemented lysis buffer was added per well, and incubated for 45 minutes at room temperature, shaking at 600 rpm. Next, 16 μL of cell lysate was added to a 384 well low volume ProxyPlate (Perkin Elmer/Revvity) mixed with 4 μL of HTRF antibodies (1:1 Eu Cryptate+d2 Cryptate). HTRF supplemented lysis buffer and antibody reagents were used from the phosphor-AKT(S473) HTRF assay kit (CisBio/Revvity), following manufacturers protocol recommendations. Plates were sealed and incubated at 4° C. overnight.
(§3) The following day, plates were centrifuged for 1 minute at 1000 rpm, and read on a PHERAstar plate reader. IC50 values were calculated using Spotfire software.

[2] = system: T47D (PI3Kα-H1047R) cell line; assay: HTRF phospho-AKT(S473) cell assay in T47D cells; type: cell-based, human; conditions: Homo sapiens, 2 hours compound incubation
Protocol: as §1, §2, §3

[3] = HTRF phospho-AKT(S473), SKBR3 (PI3Kα-Wild Type) cells
[4] = HTRF phospho-AKT(S473), T47D (PI3Kα-H1047R) cells
[5] = SKBR3 (PI3Kα-Wild Type) cells, HTRF phospho-AKT(S473)
[6] = T47D (PI3Kα-H1047R) cells, HTRF phospho-AKT(S473)
[7] = SKBR3 (PI3Kα-Wild Type) cell line, phospho-AKT(S473) HTRF
[8] = T47D (PI3Kα-H1047R) cell line, phospho-AKT(S473) HTRF

IC50 [1, 3] [nM]	IC50 [2, 4] [nM]	IC50 [1, 5] [nM]	IC50 [2, 6] [nM]	SMILES	other results
–	–	≥ 5000	< 250	Cc1cc([C@@H](C)Nc2ccc(Cl)nc2C(=O)NS(C)(=O)=O)c2nc(N3CCC(n4c(C)nc5ccccc54)CC3)n(C)c(=O)c2c1 [Compound 268, (R)-6-chloro-3-((1-(3,6-dimethyl-2-(4-(2-methyl-1H-benzo[d]imidazol-1-yl)piperidin-1-yl)-4-oxo-3,4-dihydroquinazolin-8-yl)ethyl)amino)-N-(methylsulfonyl) picolinamide]	–
–	–	≥ 5000	< 250	Cc1cc([C@@H](C)Nc2ccc(Cl)nc2C(=O)NS(C)(=O)=O)c2nc(N3CCC(c4cncc(C)n4)CC3)n(C)c(=O)c2c1 [Compound 399, (R)-6-chloro-3-((1-(3,6-dimethyl-2-(4-(6-methylpyrazin-2-yl)piperidin-1-yl)-4-oxo-3,4-dihydroquinazolin-8-yl)ethyl)amino)-N-(methylsulfonyl) picolinamide]	–
–	–	≥ 5000	250 to 500	Cc1cc([C@@H](C)Nc2ccc(Cl)nc2C(=O)NS(C)(=O)=O)c2nc(N3Cc4cn(-c5ccccc5)nc4C3)n(C)c(=O)c2c1 [Compound 147, (R)-6-chloro-3-((1-(3,6-dimethyl-4-oxo-2-(2-phenyl-2,6-dihydropyrrolo[3,4-c]pyrazol-5(4H)-yl)-3,4-dihydroquinazolin-8-yl)ethyl)amino)-N-(methylsulfonyl) picolinamide]	–
–	–	1000 to 5000	< 250	Cc1cc([C@@H](C)Nc2ccc(Cl)nc2C(=O)NS(C)(=O)=O)c2nc(N3CCC(c4nn(C)cc4F)CC3)n(C)c(=O)c2c1 [Compound 247, (R)-6-chloro-3-((1-(2-(4-(4-fluoro-1-methyl-1H-pyrazol-3-yl)piperidin-1-yl)-3,6-dimethyl-4-oxo-3,4-dihydroquinazolin-8-yl)ethyl)amino)-N-(methylsulfonyl) picolinamide]	–
≥ 5000	250 to 500	–	–	COc1nccnc1C1CCN(c2nc3c([C@@H](C)Nc4ccc(Cl)nc4C(=O)NS(C)(=O)=O)cc(C)cc3c(=O)n2C)CC1 [Compound 563, (R)-6-chloro-3-((1-(2-(4-(3-methoxypyrazin-2-yl)piperidin-1-yl)-3,6-dimethyl-4-oxo-3,4-dihydroquinazolin-8-yl)ethyl)amino)-N-(methylsulfonyl) picolinamide]	–
≥ 5000	< 250	–	–	[2H]C([2H])([2H])n1cc(F)c(C2CCN(c3nc4c([C@@H](C)Nc5ccc(Cl)nc5C(=O)NS(C)(=O)=O)cc(C)cc4c(=O)n3C)CC2)n1 [Compound 456, (R)-6-chloro-3-((1-(2-(4-(4-fluoro-1-(methyl-d3)-1H-pyrazol-3-yl)piperidin-1-yl)-3,6-dimethyl-4-oxo-3,4-dihydroquinazolin-8-yl)ethyl)amino)-N-(methylsulfonyl) picolinamide]	–
–	–	1000 to 5000	< 250	Cc1cc([C@@H](C)Nc2ccc(Cl)nc2C(=O)NS(C)(=O)=O)c2nc(N3CCC[C@@H](c4cc[nH]n4)C3)n(C)c(=O)c2c1 (relative stereo) [Compound 218, 3-(((R)-1-(2-((R*)-3-(1H-pyrazol-3-yl)piperidin-1-yl)-3,6-dimethyl-4-oxo-3,4-dihydroquinazolin-8-yl)ethyl)amino)-6-chloro-N-(methylsulfonyl) picolinamide]	–
–	–	1000 to 5000	< 250	Cc1cc([C@@H](C)Nc2ccc(Cl)nc2C(=O)NS(C)(=O)=O)c2nc(N3CCC(c4ccc(C)nn4)CC3)n(C)c(=O)c2c1 [Compound 264, (R)-6-chloro-3-((1-(3,6-dimethyl-2-(4-(6-methylpyridazin-3-yl)piperidin-1-yl)-4-oxo-3,4-dihydroquinazolin-8-yl)ethyl)amino)-N-(methylsulfonyl) picolinamide]	–

Second part, the compound before the results:

SMILES	IC50 [1, 3] [nM]	IC50 [2, 4] [nM]	IC50 [1, 5] [nM]	IC50 [2, 6] [nM]	other results
Cc1cc([C@@H](C)Nc2ccc(Cl)nc2C(=O)NS(C)(=O)=O)c2nc(N3C[C@@H]4[C@H](C3)[C@H]4c3ncc(C)o3)n(C)c(=O)c2c1 [Compound 653, 6-chloro-3-(((R)-1-(3,6-dimethyl-2-((1R,5S,6R)-6-(5-methyloxazol-2-yl)-3-azabicyclo[3.1.0]hexan-3-yl)-4-oxo-3,4-dihydroquinazolin-8-yl)ethyl)amino)-N-(methylsulfonyl) picolinamide]	1000 to 5000	250 to 500	–	–	–
Cc1cc([C@@H](C)Nc2ccc(Cl)nc2C(=O)NS(C)(=O)=O)c2nc(N3C[C@@H]4[C@H](C3)[C@H]4c3cnc(C(F)(F)F)nc3)n(C)c(=O)c2c1 [Compound 484, 6-chloro-3-(((R)-1-(3,6-dimethyl-4-oxo-2-((1R,5S,6S)-6-(2-(trifluoromethyl)pyrimidin-5-yl)-3-azabicyclo[3.1.0]hexan-3-yl)-3,4-dihydroquinazolin-8-yl)ethyl)amino)-N-(methylsulfonyl) picolinamide]	1000 to 5000	250 to 500	–	–	–
Cc1cc([C@@H](C)Nc2ccc(Cl)nc2C(=O)NS(C)(=O)=O)c2nc(N3C[C@@H]4[C@H](C3)[C@H]4c3cc(C)[nH]n3)n(C)c(=O)c2c1 [Compound 510, 6-chloro-3-(((R)-1-(3,6-dimethyl-2-((1R,5S,6R)-6-(5-methyl-1H-pyrazol-3-yl)-3-azabicyclo[3.1.0]hexan-3-yl)-4-oxo-3,4-dihydroquinazolin-8-yl)ethyl)amino)-N-(methylsulfonyl) picolinamide]	1000 to 5000	250 to 500	–	–	–
Cc1cc([C@@H](C)Nc2ccc(Cl)nc2C(=O)NS(C)(=O)=O)c2nc(-c3ccc4nn(C)c(C)c4c3)n(C)c(=O)c2c1 [Compound 842, (R)-6-chloro-3-((1-(2-(2,3-dimethyl-2H-indazol-5-yl)-3,6-dimethyl-4-oxo-3,4-dihydroquinazolin-8-yl)ethyl)amino)-N-(methylsulfonyl) picolinamide]	–	–	–	–	IC50 [1, 7]: 1000 to 5000 nM; IC50 [2, 8]: < 250 nM
Cc1cc([C@@H](C)Nc2ccc(Cl)nc2C(=O)NS(C)(=O)=O)c2nc([C@H]3[C@@H]4CN(c5cnc(C)cn5)C[C@@H]43)n(C)c(=O)c2c1 [Compound 811, 6-chloro-3-(((R)-1-(3,6-dimethyl-2-((1R,5S,6r)-3-(5-methylpyrazin-2-yl)-3-azabicyclo[3.1.0]hexan-6-yl)-4-oxo-3,4-dihydroquinazolin-8-yl)ethyl)amino)-N-(methylsulfonyl) picolinamide]	≥ 5000	250 to 500	–	–	–
Cc1cc([C@@H](C)Nc2ccc(Cl)nc2C(=O)NS(C)(=O)=O)c2nc([C@H]3[C@@H]4CNC[C@@H]43)n(C)c(=O)c2c1 [Compound 848, 3-(((R)-1-(2-((1R,5S,6r)-3-azabicyclo[3.1.0]hexan-6-yl)-3,6-dimethyl-4-oxo-3,4-dihydroquinazolin-8-yl)ethyl)amino)-6-chloro-N-(methylsulfonyl) picolinamide]	–	–	–	–	IC50 [1, 7]: ≥ 5000 nM; IC50 [2, 8]: 1000 to 5000 nM
Cc1cc([C@@H](C)Nc2ccc(Cl)nc2C(=O)NS(C)(=O)=O)c2nc(N3CCN(c4nn(C)cc4F)CC3)n(C)c(=O)c2c1 [Compound 450, (R)-6-chloro-3-((1-(2-(4-(4-fluoro-1-methyl-1H-pyrazol-3-yl)piperazin-1-yl)-3,6-dimethyl-4-oxo-3,4-dihydroquinazolin-8-yl)ethyl)amino)-N-(methylsulfonyl) picolinamide]	≥ 5000	< 250	–	–	–
Cc1cc([C@@H](C)Nc2ccc(Cl)nc2C(=O)NS(C)(=O)=O)c2nc(N3Cc4cn(-c5cnn(C)c5)nc4C3)n(C)c(=O)c2c1 [Compound 245, (R)-6-chloro-3-((1-(3,6-dimethyl-2-(2-(1-methyl-1H-pyrazol-4-yl)-2,6-dihydropyrrolo[3,4-c]pyrazol-5(4H)-yl)-4-oxo-3,4-dihydroquinazolin-8-yl)ethyl)amino)-N-(methylsulfonyl) picolinamide]	–	–	1000 to 5000	< 250	–
Cc1cc([C@@H](C)Nc2ccc(Cl)nc2C(=O)NS(C)(=O)=O)c2nc(N3CCN(c4ncc(Cl)cn4)CC3)n(C)c(=O)c2c1 [Compound 530, (R)-6-chloro-3-((1-(2-(4-(5-chloropyrimidin-2-yl)piperazin-1-yl)-3,6-dimethyl-4-oxo-3,4-dihydroquinazolin-8-yl)ethyl)amino)-N-(methylsulfonyl) picolinamide]	≥ 5000	250 to 500	–	–	–
